Assay results as given in patent US20260285810A1, “CRYSTAL FORM OF MUSCARINE ANTAGONIST, METHOD FOR PREPARING SAME, AND USE THEREOF” (SICHUAN KELUN PHARMACEUTICAL RESEARCH INSTITUTE CO., LTD., priority 2023, published 2026).

Assays:
Assay type in all cases: physicochemical
[1] = Angle of repose (powder comprehensive characteristic tester); details: Example 1 batch
Method: The powder falls through the funnel to form a cone, and then the angle between the inclined plane and the horizontal plane is determined. The test is repeated in triplicate.

[2] = Drying of wet crystal product with Karl Fischer water content and XRPD testing; details: drying at 30° C.-35° C., vacuum
Method: (§1) The XRPD pattern of the crystal form is collected using an X'Pert3 Powder diffractometer, which uses Cu […] irradiation and performs detection using Absolute scan at room temperature. The detection range is from 3.5° to 40°, with a step size of 0.013°, a dwell time of 50 s, and one scan.
The wet crystal product of Example 1 was dried under conditions of a temperature of 30° C.-35° C. and a vacuum degree of −0.08 Mpa. During the drying, the samples were collected for Karl Fischer water content testing and XRPD.

[3] = Bulk density and tap density (powder density tester); details: Example 1 batch
Method: The top surface is carefully leveled, and the apparent volume is recorded. The cylinder is then placed on the powder density tester and shaken at a frequency of 1250. The taped volume is recorded, and then the tap density is calculated. The same batch of samples is tested three times in parallel.

[4] = Temperature- and humidity-mediated crystal transformation (XRPD, HPLC purity, KF water content)
Method: as §1
Samples 1 and 2 were tested for XRPD, HPLC purity, and KF water content.

[5] = Dynamic vapor sorption (DVS) evaluation; details: DVS 25° C.
Method: The DVS pattern of the crystal form is tested using a DVS Intrinsic (SMS) at a test temperature of 25° C. and detected in cycle-DMDT mode.
Dynamic vapor sorption curve (also referred to as adsorption-desorption characteristic curve) was evaluated using a DVS Intrinsic (SMS). Approximately 30 mg of the sample prepared in Example 1 was subjected to a three-stage programmed scanning method at room temperature (25° C.) as follows: the first-stage hygroscopicity program involving a stepwise increase in relative humidity from 60% RH to 90% RH, with a relative humidity change rate of 10% RH/step; the second-stage hygroscopicity program involving a stepwise decrease in relative humidity from 90% RH to 0% RH, with a relative humidity change rate of 10% RH/step; and the third-stage hygroscopicity program involving a stepwise increase in relative humidity from 0% RH to 90% RH, with a relative humidity change rate of 10% RH/step. The mass change rate mode (dm/dt mode) was used, where when the mass change rate (dm/dt) was ≤0.005%, the instrument program controlled the switching of the relative humidity (RH) to the next stage and maintained constant humidity (+/−10% RH).

[6] = Accelerated and long-term storage, crystal form by XRPD
Method: The packaged samples were stored under conditions of 30° C./35% RH and 40° C./75% RH, and collected and investigated for crystal forms at day 0, 3 months, and 6 months, respectively.

[7] = Hygroscopic weight gain on storage at 80% humidity for 24 hours; details: stored under a humidity condition of 80%+2% for 24 hours
[8] = Particle size distribution (Malvern Mastersizer 3000); details: Example 1 batch; dispersion solvent water
Method: Test method: The particle type is set as non-spherical, the particle refractive index is 1.52, the particle absorption rate is 0.001, and the rotation speed is 1800 rpm; the obscuration is 2%-15%, the sample background test time is 10 seconds, the dispersion solvent is water, the dispersant refractive index is 1.330, and the stabilization time is about 30 seconds; the number of tests is 3.

[9] = Influencing factors stability: high temperature, high humidity, illumination, accelerated conditions (XRPD, HPLC purity); details: for remaining at 840 h: solid state
Text: Samples were collected and tested for XRPD and HPLC purity at day 0, day 5, day 10, and day 35, respectively.

[10] = before/after drying (30° C., vacuum, humidity ≤20%, 24 h) and re-storage (RH 60%-80%, 25° C.-30° C., 24 h)
[11] = Illumination at 25° C. (4500 lx), day 35
[12] = day 0, Example 3 batch, packaged

powder angle of repose [1]: 45 °
crystal form (XRPD) ([2]; KF water content=7.1%): mixed crystals
crystal form (XRPD) ([2]; KF water content=8.3%): crystal form A
crystal form (XRPD) ([2]; KF water content=8.9%): crystal form A
crystal form (XRPD) ([2]; KF water content=17%): crystal form A
bulk density [3]: 0.285 g/mL
tap density [3]: 0.494 g/mL
HPLC % [4, 10]: 99.79%
KF/water content [4, 10]: 9.1%
XRPD [4, 10]: Crystal form A
chemical purity of the crystal form ([4]; during the temperature- and humidity-mediated mutual transformation of crystal forms): remains unchanged
hygroscopic weight gain ([5]; humidity increased from 60% RH to 90% RH, sample of Example 1): < 0.4%
hygroscopic weight gain ([5]; within the range of 30%-90% RH, sample of Example 1): < 2%
crystal form of the samples collected during the DVS process ([5]; sample of Example 1): remains unchanged
crystal form ([6]; 30° C./35% RH, 6 months): Crystal form A
crystal form ([6]; 30° C./35% RH, day 0): Crystal form A
crystal form ([6]; 40° C./75% RH, 3 months): Crystal form A
crystal form ([6]; 40° C./75% RH, 6 months): Crystal form A
crystal form ([6]; 40° C./75% RH, day 0): Crystal form A
hygroscopic weight gain [7]: < 2%
particle size D10 [8]: 8.40 μm
particle size D50 [8]: 25.86 μm
particle size D90 [8]: 53.59 μm
XRPD crystal form ([9]; 40° C., day 5): form A
XRPD crystal form ([9]; 40° C., day 10): form A
XRPD crystal form ([9]; 40° C., day 35): Crystal form A
XRPD crystal form ([9]; 40° C./75% RH, day 5): form A
XRPD crystal form ([9]; 40° C./75% RH, day 10): form A
XRPD crystal form ([9]; 40° C./75% RH, day 35): Crystal form A
XRPD crystal form ([9]; 92.5% RH (25° C.), day 5): form A
XRPD crystal form ([9]; 92.5% RH (25° C.), day 10): form A
XRPD crystal form ([9]; 92.5% RH (25° C.), day 35): Crystal form A
XRPD crystal form ([9]; Illumination at 25° C. (4500 lx), day 5): form A
XRPD crystal form ([9]; Illumination at 25° C. (4500 lx), day 10): form A
XRPD crystal form [9, 11]: Crystal form A
Purity (HPLC) [9, 12]: Purity: 99.87%
XRPD crystal form [9, 12]: form A
crystal form on exposure to stress conditions ([9]; high temperature (40° C.), high humidity (92.5% RH), illumination and accelerated (40° C./75% RH) conditions): remains unchanged
remaining at 840 h ([9]; 40° C., day 35): 99.9%
remaining at 840 h ([9]; 40° C./75% RH, day 35): 99.9%
remaining at 840 h ([9]; 92.5% RH (25° C.), day 35): 99.9%
remaining at 840 h [9, 11]: 99.9%
SMILES: CN(CCN1CCC(OC(=O)Nc2ccccc2-c2ccccc2)CC1)C(=O)c1ccc(CN2CCC(C(N)=O)CC2)cc1 [crystal form A of revefenacin]
DVS curve characteristics ([5]; sample of Example 1, FIG. 5): reversible adsorption/desorption characteristics and low hygroscopicity
crystal form and crystallinity ([6]; 3-month and 6-month storage under the accelerated condition (40° C./75% RH)): remains unchanged in both crystal form and crystallinity
crystal form and crystallinity ([6]; long-term conditions (30° C./35% RH) for 6 months): remains unchanged in both crystal form and crystallinity
